Patent publication US20250098679A1, “HERBICIDAL PYRIDONE DERIVATIVES” (SYNGENTA CROP PROTECTION AG, priority 2021, published 2025)

Key:
Assay type in all cases: in vivo
Conditions in all cases: evaluated after 13 days
Zea mays (ZEAMX) [1] = assay: Pre-emergence Test, Zea mays (ZEAMX)
[2] = test system: Amaranthus retoflexus (AMARE); assay: Post-emergence Test, Amaranthus retoflexus (AMARE); set-up: key to percentage damage caused to the plant, AMARE (five-point scale): 5=81-100%, 4=61-80%, 3=41-60%, 2=21-40%, 1=0-20% damage
Method in brief: (§1)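 Spray application at 1000 g/ha unless otherwise stated. Damage was scored 13 days later as 1 (0-20%) to 5 (81-100%).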

Setaria faberi (SETFA) [3] = assay: Post-emergence Test, Setaria faberi (SETFA); set-up: key to percentage damage caused to the plant, SETFA (five-point scale): 5=81-100%, 4=61-80%, 3=41-60%, 2=21-40%, 1=0-20% damage
Method in brief: as §1

[4] = test system: Amaranthus retoflexus (AMARE); assay: Pre-emergence Test, Amaranthus retoflexus (AMARE)
[5] = test system: Amaranthus palmeri (AMAPA); assay: Post-emergence Test, Amaranthus palmeri (AMAPA); set-up: key: 5=81-100%, 4=61-80%, 3=41-60%, 2=21-40%, 1=0-20% damage
Method in brief: as §1

[6] = test system: Echinochloa crus-galli (ECHCG); assay: Post-emergence Test, Echinochloa crus-galli (ECHCG); set-up: key to percentage damage caused to the plant, ECHCG (five-point scale): 5=81-100%, 4=61-80%, 3=41-60%, 2=21-40%, 1=0-20% damage
Method in brief: as §1

[7] = test system: Ipomoea hederacea (IPOHE); assay: Post-emergence Test, Ipomoea hederacea (IPOHE); set-up: key to percentage damage caused to the plant, IPOHE (five-point scale): 5=81-100%, 4=61-80%, 3=41-60%, 2=21-40%, 1=0-20% damage
Method in brief: as §1

Zea mays (ZEAMX) [8] = assay: Post-emergence Test, Zea mays (ZEAMX); set-up: key to percentage damage caused to the plant, ZEAMX (five-point scale): 5=81-100%, 4=61-80%, 3=41-60%, 2=21-40%, 1=0-20% damage
Method in brief: as §1

[9] = test system: Amaranthus palmeri (AMAPA); assay: Pre-emergence Test, Amaranthus palmeri (AMAPA)
Setaria faberi (SETFA) [10] = assay: Pre-emergence Test, Setaria faberi (SETFA)
[11] = test system: Echinochloa crus-galli (ECHCG); assay: Pre-emergence Test, Echinochloa crus-galli (ECHCG)
[12] = test system: Ipomoea hederacea (IPOHE); assay: Pre-emergence Test, Ipomoea hederacea (IPOHE)

Compound | Pre-emergence Test ZEAMX, percentage damage caused to the plant (five-point scale) (Zea mays (ZEAMX) [1]; 250 g/Ha (*)) | percentage damage caused to the plant, AMARE (five-point scale) ([2]; 250 g/Ha) | percentage damage caused to the plant, SETFA (five-point scale) (Setaria faberi (SETFA) [3]; 250 g/Ha) | Pre-emergence Test AMARE, percentage damage caused to the plant (five-point scale) ([4]; 250 g/Ha (*)) | percentage damage caused to the plant, AMAPA (five-point scale) ([5]; 250 g/Ha) | percentage damage caused to the plant, ECHCG (five-point scale) ([6]; 250 g/Ha) | percentage damage caused to the plant, IPOHE (five-point scale) ([7]; 250 g/Ha) | percentage damage caused to the plant, ZEAMX (five-point scale) (Zea mays (ZEAMX) [8]; 250 g/Ha) | Pre-emergence Test AMAPA, percentage damage caused to the plant (five-point scale) ([9]; 250 g/Ha (*)) | Pre-emergence Test SETFA, percentage damage caused to the plant (five-point scale) (Setaria faberi (SETFA) [10]; 250 g/Ha (*)) | Pre-emergence Test ECHCG, percentage damage caused to the plant (five-point scale) ([11]; 250 g/Ha (*)) | Pre-emergence Test IPOHE, percentage damage caused to the plant (five-point scale) ([12]; 250 g/Ha (*)) | other results
CCn1c(Cn2cnc3ncccc32)cc(=O)c(C(=O)O)c1-c1ccc(Cl)c(Cl)c1 [Compound 125, 2-(3,4-dichlorophenyl)-1-ethyl-6-(imidazo[4,5-b]pyridin-1-ylmethyl)-4-oxo-pyridine-3-carboxylic acid] | 0 | 1 (1=0-20%) | 1 (1=0-20%) | 0 | 0 | 1 (1=0-20%) | 1 (1=0-20%) | 1 (1=0-20%) | 1 (1=0-20%) | 1 (1=0-20%) | 0 | 0 | –
CCn1c(Cn2nc(C)cc2OC)cc(=O)c(C(=O)O)c1-c1ccc(Cl)c(Cl)c1 [Compound 127, 2-(3,4-dichlorophenyl)-1-ethyl-6-[(5-methoxy-3-methyl-pyrazol-1-yl)methyl]-4-oxo-pyridine-3-carboxylic acid] | 0 | 0 | 3 (3=41-60%) | 1 (1=0-20%) | 0 | 2 (2=21-40%) | 1 (1=0-20%) | 1 (1=0-20%) | 1 (1=0-20%) | 3 (3=41-60%) | 1 (1=0-20%) | 0 | Pre-emergence Test ZEAMX, percentage damage caused to the plant (five-point scale) (Zea mays (ZEAMX) [1]; 1000 g/ha): 4 (4=61-80%); percentage damage caused to the plant, AMARE (five-point scale) ([2]; 1000 g/ha): 2 (2=21-40%); percentage damage caused to the plant, SETFA (five-point scale) (Setaria faberi (SETFA) [3]; 1000 g/ha): 3 (3=41-60%); Pre-emergence Test AMARE, percentage damage caused to the plant (five-point scale) ([4]; 1000 g/ha): 2 (2=21-40%); percentage damage caused to the plant, AMAPA (five-point scale) ([5]; 1000 g/ha): 3 (3=41-60%); percentage damage caused to the plant, ECHCG (five-point scale) ([6]; 1000 g/ha): 4 (4=61-80%); percentage damage caused to the plant, IPOHE (five-point scale) ([7]; 1000 g/ha): 3 (3=41-60%); percentage damage caused to the plant, ZEAMX (five-point scale) (Zea mays (ZEAMX) [8]; 1000 g/ha): 3 (3=41-60%); Pre-emergence Test AMAPA, percentage damage caused to the plant (five-point scale) ([9]; 1000 g/ha): 1 (1=0-20%); Pre-emergence Test SETFA, percentage damage caused to the plant (five-point scale) (Setaria faberi (SETFA) [10]; 1000 g/ha): 5 (5=81-100%); Pre-emergence Test ECHCG, percentage damage caused to the plant (five-point scale) ([11]; 1000 g/ha): 3 (3=41-60%); Pre-emergence Test IPOHE, percentage damage caused to the plant (five-point scale) ([12]; 1000 g/ha): 2 (2=21-40%)
